Results from ChEMBL document CHEMBL5096227, “Discovery of Ervogastat (PF-06865571): A Potent and Selective Inhibitor of Diacylglycerol Acyltransferase 2 for the Treatment of Non-alcoholic Steatohepatitis” (J Med Chem, 2022).

Key:
[1] = Plasma protein binding in cynomolgus monkey assessed as unbound fraction ratio at 2 uM; type: ADME, cell-free, Macaca fascicularis
[2] = Half life in cynomolgus monkey at 5 mg/kg, po; type: ADME, organism-based, Macaca fascicularis; details: in vivo
[3] = Toxicity in non-human primates assessed as development-limiting toxicity
[4] = Plasma clearance in Wistar Han rat at 1 mg/kg, iv; type: ADME, organism-based
[5] = Drug metabolism in monkey hepatocytes assessed as oxidation of THF ring mediated metabolite formation; type: ADME, cell-based, Macaca mulatta, Hepatocyte; details: rhesus monkey
[6] = Drug metabolism in rat hepatocytes assessed as hydrolytic cleavage of amide bond mediated metabolite formation; type: ADME, cell-based, Hepatocyte
[7] = Plasma protein binding in human assessed as unbound fraction ratio at 2 uM; type: ADME, cell-free
Cytochrome P450 2C19 = Cytochrome P450 2C19 (Homo sapiens, UniProt P33261); experiment: Reversible inhibition of CYP2C19 in pooled human liver microsomes using 4-Hydroxymephenytoin as substrate incubated for 20 mins in presence of NADPH by HPLC-MS/MS analysis; type: ADME, Microsome
[8] = Drug metabolism in cryopreserved human hepatocytes assessed as hydrolytic cleavage of amide bond mediated metabolite formation at 10 uM measured for 240 mins by HPLC-UV-MS analysis; type: ADME, cell-based, Hepatocyte; details: 4 h
[9] = Inhibition of [14C]-glycerol incorporation into triglycerides in monkey primary hepatocytes; type: functional, cell-based, Macaca mulatta; details: hepatocyte
[10] = Genotoxicity in human TK6 cells by micronucleus test; type: toxicity, cell-based
Cytochrome P450 2C8 = target: T1, Cytochrome P450 2C8 (Homo sapiens, UniProt P10632); experiment: Reversible inhibition of CYP2C8 in pooled human liver microsomes using desethylamodiaquine as substrate incubated for 10 mins in presence of NADPH by HPLC-MS/MS analysis; type: ADME, Microsome
T1 sequence (P10632 whole entry): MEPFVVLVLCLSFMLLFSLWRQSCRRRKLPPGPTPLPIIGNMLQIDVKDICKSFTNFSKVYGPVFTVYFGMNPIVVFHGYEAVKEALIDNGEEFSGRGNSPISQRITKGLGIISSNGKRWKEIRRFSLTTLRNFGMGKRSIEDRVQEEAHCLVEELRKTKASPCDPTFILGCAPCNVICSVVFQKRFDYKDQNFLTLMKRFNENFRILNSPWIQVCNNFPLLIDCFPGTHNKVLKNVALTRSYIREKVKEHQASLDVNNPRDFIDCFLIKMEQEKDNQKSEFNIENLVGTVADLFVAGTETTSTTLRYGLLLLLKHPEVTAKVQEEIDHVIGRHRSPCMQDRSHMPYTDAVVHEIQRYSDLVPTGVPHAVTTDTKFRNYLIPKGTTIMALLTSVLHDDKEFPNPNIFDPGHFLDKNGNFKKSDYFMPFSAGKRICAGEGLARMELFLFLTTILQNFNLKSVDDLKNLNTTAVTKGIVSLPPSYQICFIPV

[11] = Volume of distribution at steady state in cynomolgus monkey at 1 mg/kg, iv; type: ADME, organism-based, Macaca fascicularis; details: in vivo, read-out: Vdss
Rattus norvegicus = experiment: In vivo inhibition of DGAT2 in high fat/high cholesterol diet fed Sprague-Dawley rat model assessed as reduction in hepatic triglyceride level administered orally twice daily for 7 days starting from day 14 post diet and measured 2 hrs post last dose; type: functional, organism-based; details: dose 0.3-90 mg/kg, route po, time 7.0 day, DDE = dose-dependent effect
Cytochrome P450 1A2 = target: T2, Cytochrome P450 1A2 (Homo sapiens, UniProt P05177); experiment: Reversible inhibition of CYP1A2 in pooled human liver microsomes using […] as substrate incubated for 20 mins in presence of NADPH by HPLC-MS/MS analysis; type: ADME, Microsome
T2 sequence (P05177 whole entry): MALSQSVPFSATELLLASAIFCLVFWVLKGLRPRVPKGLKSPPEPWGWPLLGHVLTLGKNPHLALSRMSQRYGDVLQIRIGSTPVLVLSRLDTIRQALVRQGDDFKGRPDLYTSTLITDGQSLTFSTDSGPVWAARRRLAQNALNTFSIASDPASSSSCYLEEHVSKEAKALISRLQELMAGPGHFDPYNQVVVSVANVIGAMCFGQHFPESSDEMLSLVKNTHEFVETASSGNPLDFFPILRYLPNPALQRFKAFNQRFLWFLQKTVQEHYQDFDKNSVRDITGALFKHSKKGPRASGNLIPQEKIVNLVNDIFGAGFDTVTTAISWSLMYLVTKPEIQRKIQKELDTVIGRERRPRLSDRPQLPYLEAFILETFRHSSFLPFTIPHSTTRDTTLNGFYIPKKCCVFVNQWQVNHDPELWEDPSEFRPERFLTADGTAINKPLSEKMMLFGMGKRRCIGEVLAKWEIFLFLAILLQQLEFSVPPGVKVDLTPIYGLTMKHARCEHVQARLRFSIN

[12] = Drug metabolism in cryopreserved human hepatocytes assessed as O-dearylation mediated oxidative metabolite formation at 10 uM measured for 240 mins by HPLC-UV-MS analysis; type: ADME, cell-based, Hepatocyte; details: 4 h
[13] = Half life in human; type: ADME
[14] = In vivo inhibition of DGAT2 in sucrose diet fed Sprague-Dawley rat assessed as reduction in triglyceride level at 90 mg/kg, po administered as single dose and measured after 2 hrs relative to control; type: functional; parameters: scale not given: the % may be the effect or the level left
[15] = target: T3, Diacylglycerol O-acyltransferase 1 (Homo sapiens, UniProt O75907); experiment: Inhibition of human DGAT1 using [1-14C]decanoyl-CoA and 1,2-didecanoyl-sn-glycerol as substrates assessed as incorporation of [1-14C]decanoyl […] preincubated for 30 mins followed by substrate addition and measured after 30 to 90 mins by scintillation counting method
T3 sequence (O75907 whole entry): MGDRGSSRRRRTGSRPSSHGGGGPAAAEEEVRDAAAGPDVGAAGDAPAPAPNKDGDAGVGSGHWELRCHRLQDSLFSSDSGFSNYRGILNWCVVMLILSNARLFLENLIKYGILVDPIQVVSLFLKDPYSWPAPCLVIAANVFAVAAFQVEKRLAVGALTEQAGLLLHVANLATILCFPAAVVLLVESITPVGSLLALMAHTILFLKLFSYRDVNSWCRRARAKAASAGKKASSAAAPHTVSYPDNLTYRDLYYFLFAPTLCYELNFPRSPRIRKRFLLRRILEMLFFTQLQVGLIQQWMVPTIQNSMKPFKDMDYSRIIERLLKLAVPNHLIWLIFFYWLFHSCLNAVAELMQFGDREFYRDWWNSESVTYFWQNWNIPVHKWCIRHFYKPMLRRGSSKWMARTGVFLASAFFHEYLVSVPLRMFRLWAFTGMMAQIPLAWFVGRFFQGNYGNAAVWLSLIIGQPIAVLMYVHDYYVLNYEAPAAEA

[16] = Cardiotoxicity in non-human primates assessed as development-limiting toxicity
[17] = Oral bioavailability in cynomolgus monkey at 5 mg/kg; type: ADME, organism-based, Macaca fascicularis; details: in vivo
[18] = Apparent intrinsic clearance in cryopreserved human hepatocytes measured per million cells at 1 uM incubated for 4 hrs by LC-MS/MS analysis; type: ADME, cell-based, Hepatocyte; details: cryopreserved human hepatocytes, read-out: CLH

Cytochrome P450 2C19, sequence (P33261 whole entry): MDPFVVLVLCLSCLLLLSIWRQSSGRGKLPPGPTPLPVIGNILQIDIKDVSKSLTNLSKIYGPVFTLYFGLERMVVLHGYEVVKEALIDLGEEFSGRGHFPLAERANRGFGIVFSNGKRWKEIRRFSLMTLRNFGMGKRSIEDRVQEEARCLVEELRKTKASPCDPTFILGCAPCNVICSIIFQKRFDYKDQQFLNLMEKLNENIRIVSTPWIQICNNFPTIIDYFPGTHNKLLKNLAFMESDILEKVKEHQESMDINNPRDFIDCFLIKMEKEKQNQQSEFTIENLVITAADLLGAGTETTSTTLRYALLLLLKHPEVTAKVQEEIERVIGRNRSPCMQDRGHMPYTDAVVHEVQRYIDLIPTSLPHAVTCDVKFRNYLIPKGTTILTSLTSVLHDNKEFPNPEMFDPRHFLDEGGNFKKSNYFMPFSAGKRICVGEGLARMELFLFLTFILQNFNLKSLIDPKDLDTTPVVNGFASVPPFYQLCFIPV

- Ratio [1]: 0.36
- half-life [2]: 4 h
- clearance [4]: 61 mL/min/kg
- Drug metabolism [5]: Metabolite_Detected
- Drug metabolism [6]: Metabolite_Detected
- Ratio [7]: 0.353
- IC50 (Cytochrome P450 2C19): 57 µM
- Drug metabolism [8]: Metabolite_Detected
- IC50 (Cytochrome P450 2C8): > 100 µM
- Vd [11]: 0.7 L/kg
- IC50 (Cytochrome P450 1A2): > 100 µM
- Drug metabolism [12]: Metabolite_Detected
- half-life [13]: 5 h
- IC50 [15]: > 50 µM
- bioavailability [17]: 48%
- hepatocyte CLint at 1 µM [18]: < 4 µL/min/1e6 cells
SMILES: CCOc1cccnc1Oc1cncc(-c2ncc(C(=O)N[C@H]3CCOC3)cn2)c1 [PF-06865571]
- Activity [3]: Non-Toxic
- IC50 [9]: 0.00213 µM
- Activity [10]: Non-Toxic
- Activity (Rattus norvegicus): Dde
- Activity [14]: 76%
- Activity [16]: Non-Toxic
